Consider 24 compounds from patent publication US10023592B2, “Bromodomain inhibitors” (Celgene Quanticel Research, Inc., priority 2013, dated 2018).

The test system of assay [1] is NCI-H460, human non-small cell lung cancer cells. The experiment in a line: Cell-MTS proliferation assay, NCI-H460. Type of assay: cell-based. Conditions: Homo sapiens, 168 hr. In outline: (§1)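 Cells were seeded per 96-well at densities giving ~90% confluence by day 7 (Raji 15,000, HL-60 5,000, NCI-H460 3,000) and dosed 24 hr later with an 11-point dilution, 100 μM to 2.0 nM final. Seven-day MTS colorimetric read at OD490; IC50 from background-subtracted, DMSO-normalised values.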

For assay [2], the system named is HL-60, human proleukemia cells. The experiment in a line: Cell-MTS proliferation assay, HL-60. Type of assay: cell-based. To be noted: Homo sapiens, 168 hr. In short, it runs like this: as §1
Assay [3] concerns the target BRD4(BD1) (Homo sapiens (Human), UniProt O60885). The assay can be described thus: In vitro enzyme inhibition assay (BRD4 AlphaScreen). The assay is classed as binding. In short, it runs like this: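 AlphaScreen proximity readout, using streptavidin donor and Ni-chelate acceptor beads at 5 μg/mL final, monitors biotin-H4 tetraacetylated peptide interaction with purified His-tagged BRD4.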

Assay [4] has as its system Raji, human Burkitts lymphoma cells. The assay can be described thus: Cell-MTS proliferation assay, Raji. The assay is classed as cell-based. Conditions: Homo sapiens, 168 hr. In short, it runs like this: as §1
[5] abbreviates: NCI-H460, Cell-MTS proliferation.
Where [6] appears, read: in vitro enzyme inhibition assay.
[7] abbreviates: Cell-MTS proliferation, NCI-H460 cells.
Setting [8] is: Cell-MTS proliferation, HL-60 cells.
The mark [9] stands for this setting: Cell-MTS proliferation, Raji cells.
Setting [10] is: NCI-H460, Cell-MTS, class symbols A/B/C.
Setting [11] is: HL-60, Cell-MTS, class symbols A/B/C.
Where [12] appears, read: Raji, Cell-MTS, class symbols A/B/C.

For the compound `Cn1cc(-c2nc(S(C)(=O)=O)ccc2OCC2CC2)c2ccc(F)cc2c1=O` [Example 201, 4-[3-(cyclopropylmethoxy)-6-methylsulfonylpyridin-2-yl]-7-fluoro-2-methylisoquinolin-1-one], the IC50 is over 5000 nM in assay [1] (setting [5]); under 500 nM in assay [2] (HL-60, Cell-MTS proliferation); under 500 nM in assay [3] (setting [6]); under 500 nM in assay [4] (Raji, Cell-MTS proliferation).

Consider `CCS(=O)(=O)c1ccc(OCC2CC2)c(-c2cn(C)c(=O)c3cncn23)c1` [Example 368, 5-[2-(cyclopropylmethoxy)-5-ethylsulfonylphenyl]-7-methylimidazo[1,5-a]pyrazine-8-one], for which the IC50 was 500 to 5000 nM in assay [1] (setting [5]); under 500 nM in assay [2] (HL-60, Cell-MTS proliferation); under 500 nM in assay [3] (setting [6]); under 500 nM in assay [4] (Raji, Cell-MTS proliferation).

As to `Cc1cc(-c2cc(S(C)(=O)=O)cc3c2OC(C)C3)cn(C)c1=O` (stereo not drawn) [Example 486, 1,3-dimethyl-5-(2-methyl-5-methylsulfonyl-2,3-dihydro-1-benzofuran-7-yl)pyridin-2-one], the IC50 is over 5000 nM in assay [1] (setting [7]), 500 to 5000 nM in assay [2] (setting [8]), 500 to 5000 nM in assay [3] (setting [6]) and over 5000 nM in assay [4] (setting [9]).

On to `CCS(=O)(=O)c1ccc(OC2CCCC2)c(-c2cn(C)c(=O)c3cncn23)c1` [Example 374, 5-(2-cyclopentyloxy-5-ethylsulfonylphenyl)-7-methylimidazo[1,5-a]pyrazin-8-one], for which the IC50 was over 5000 nM in assay [1] (setting [7]), under 500 nM in assay [2] (setting [8]), under 500 nM in assay [3] (setting [6]) and under 500 nM in assay [4] (setting [9]).

For `Cn1cc(-c2cn(CS(C)(=O)=O)c(=O)cc2OCC2CC2)c2ccc(F)cc2c1=O` [Example 383, 4-[4-(cyclopropylmethoxy)-1-(methylsulfonylmethyl)-6-oxopyridin-3-yl]-7-fluoro-2-methylisoquinolin-1-one], the IC50 in assay [1] (setting [7]) was over 5000 nM; in assay [2] (setting [8]), under 500 nM; in assay [3] (setting [6]) it was under 500 nM; in assay [4] (setting [9]) it was 500 to 5000 nM.

Consider `Cn1cc(Oc2cc(-c3cc(S(C)(=O)=O)ccc3OCC3CC3)cn(C)c2=O)cn1` [Example 293, 5-[2-(cyclopropylmethoxy)-5-methylsulfonylphenyl]-1-methyl-3-(1-methylpyrazol-4-yl)oxypyridin-2-one], for which the IC50 is over 5000 nM in assay [1] (setting [5]); 500 to 5000 nM in assay [2] (HL-60, Cell-MTS proliferation); under 500 nM in assay [3] (setting [6]); 500 to 5000 nM in assay [4] (Raji, Cell-MTS proliferation).

As for `Cc1cc(-c2cc(S(C)(=O)=O)ccc2OC2CCOC2)cn(C)c1=O` (stereo not drawn) [Example 426, 1,3-dimethyl-5-[5-methylsulfonyl-2-(oxolan-3-yloxy)phenyl]pyridin-2-one], the half-inhibitory concentration (IC50) in assay [1] (setting [7]) is over 5000 nM; in assay [2] (setting [8]), 500 to 5000 nM; in assay [3] (setting [6]) it was under 500 nM; in assay [4] (setting [9]), 500 to 5000 nM.

In the case of `CCS(=O)(=O)c1ccc(OCC2CC2)c(-c2cn(C)c(=O)c3occc23)c1` [Example 252, 4-[2-(cyclopropylmethoxy)-5-ethylsulfonylphenyl]-6-methylfuro[2,3-c]pyridine-7-one], the IC50 is over 5000 nM in assay [1] (setting [5]); under 500 nM in assay [2] (HL-60, Cell-MTS proliferation); under 500 nM in assay [3] (setting [6]); under 500 nM in assay [4] (Raji, Cell-MTS proliferation).

For `CC#CCOc1ccc(S(C)(=O)=O)cc1-c1cn(C)c(=O)c2ccccc12` [Example 184, 4-(2-but-2-ynoxy-5-methylsulfonylphenyl)-2-methylisoquinolin-1-one], the IC50 in assay [1] (setting [5]) is 500 to 5000 nM; in assay [2] (HL-60, Cell-MTS proliferation), under 500 nM; in assay [3] (setting [6]), under 500 nM; in assay [4] (Raji, Cell-MTS proliferation) it was 500 to 5000 nM.

As to `Cc1cc(-c2cc(S(C)(=O)=O)ccc2OCC2CC2)cn(Cc2cocn2)c1=O` [Example 246, 5-[2-(cyclopropylmethoxy)-5-methylsulfonylphenyl]-3-methyl-1-(1,3-oxazol-4-ylmethyl)pyridin-2-one], the IC50 in assay [1] (setting [5]) was over 5000 nM; in assay [2] (HL-60, Cell-MTS proliferation), over 5000 nM; in assay [3] (setting [6]), 500 to 5000 nM; in assay [4] (Raji, Cell-MTS proliferation), over 5000 nM.

On to `Cc1cc(-c2cc(O[C@H](C)c3ccccc3)cc(S(C)(=O)=O)c2)cn(C)c1=O` [Example 341, 1,3-dimethyl-5-[3-methylsulfonyl-5-[(1R)-1-phenylethoxy]phenyl]pyridin-2-one], for which the half-inhibitory concentration (IC50) was over 5000 nM in assay [1] (setting [5]); under 500 nM in assay [2] (HL-60, Cell-MTS proliferation); under 500 nM in assay [3] (setting [6]); under 500 nM in assay [4] (Raji, Cell-MTS proliferation).

On to `CCS(=O)(=O)Nc1ncc(OCC2CC2)c(-c2cn(C)c(=O)c3cc(F)ccc23)n1` [Example 160, N-[5-(cyclopropylmethoxy)-4-(7-fluoro-2-methyl-1-oxoisoquinolin-4-yl)pyrimidin-2-yl]ethanesulfonamide], for which the IC50 was over 5000 nM in assay [1] (setting [5]); under 500 nM in assay [2] (HL-60, Cell-MTS proliferation); under 500 nM in assay [3] (setting [6]); under 500 nM in assay [4] (Raji, Cell-MTS proliferation).

For the compound `CCS(=O)(=O)Nc1ccc(OC2CCC(F)(F)CC2)c(-c2cc(C)c(=O)n(C)c2)c1` [Example 449, N-[4-(4,4-difluorocyclohexyl)oxy-3-(1,5-dimethyl-6-oxopyridin-3-yl)phenyl] ethanesulfonamide], the IC50 was over 5000 nM in assay [1] (setting [7]), under 500 nM in assay [2] (setting [8]), under 500 nM in assay [3] (setting [6]) and under 500 nM in assay [4] (setting [9]).

Take `CCS(=O)(=O)Nc1ccc(OC2CCOC2)c(-c2cc(C)c(=O)n(C)c2)c1` (stereo not drawn) [Example 445, N-[3-(1,5-dimethyl-6-oxopyridin-3-yl)-4-(oxolan-3-yloxy)phenyl]ethanesulfonamide]: the IC50 was over 5000 nM in assay [1] (setting [7]), under 500 nM in assay [2] (setting [8]), under 500 nM in assay [3] (setting [6]) and under 500 nM in assay [4] (setting [9]).

Regarding `Cc1cc(-c2cc(NS(C)(=O)=O)ccc2OC2CCOC2)cn(C)c1=O` (stereo not drawn) [Example 444, N-[3-(1,5-dimethyl-6-oxopyridin-3-yl)-4-(oxolan-3-yloxy)phenyl] methanesulfonamide], the IC50 was over 5000 nM in assay [1] (setting [7]), under 500 nM in assay [2] (setting [8]), under 500 nM in assay [3] (setting [6]) and under 500 nM in assay [4] (setting [9]).

For `CCS(=O)(=O)Nc1cc(-c2cn(C)c(=O)c3ccc(-c4cnn(C)c4)cc23)c(OC)cc1F` [Example 86, N-[2-fluoro-4-methoxy-5-[2-methyl-6-(1-methylpyrazol-4-yl)-1-oxoisoquinolin-4-yl]phenyl]ethanesulfonamide], the half-maximal inhibitory concentration (IC50) in assay [1] (setting [10]) was 500 to 5000 nM; in assay [2] (setting [11]), under 500 nM; in assay [3] (class symbols A/B/C), under 500 nM; in assay [4] (setting [12]), under 500 nM.

As for `CCS(=O)(=O)c1ccc(OCC2CC2)c(-c2cn(C)c(=O)c3ccc(-c4cnn(C)c4)cc23)c1` [Example 82, 4-[2-(cyclopropylmethoxy)-5-ethylsulfonylphenyl]-2-methyl-6-(1-methylpyrazol-4-yl)isoquinolin-1-one], the IC50 in assay [1] (setting [10]) was 500 to 5000 nM; in assay [2] (setting [11]) it was under 500 nM; in assay [3] (class symbols A/B/C), under 500 nM; in assay [4] (setting [12]), under 500 nM.

Turning to `CCS(=O)(=O)c1ccc(OCC2CC2)c(-c2cc(OC(F)F)c(=O)n(C)c2)c1` [Example 287, 5-[2-(cyclopropylmethoxy)-5-ethylsulfonylphenyl]-3-(difluoromethoxy)-1-methylpyridin-2-one], the IC50 is over 5000 nM in assay [1] (setting [5]); under 500 nM in assay [2] (HL-60, Cell-MTS proliferation); under 500 nM in assay [3] (setting [6]); 500 to 5000 nM in assay [4] (Raji, Cell-MTS proliferation).

As to `CCS(=O)(=O)c1ccc(Oc2ccc(F)cc2F)c(-c2cc(F)c(=O)n(C)c2)c1` [Example 121, 5-[2-(2,4-difluorophenoxy)-5-ethylsulfonylphenyl]-3-fluoro-1-methylpyridin-2-one], the IC50 in assay [1] (setting [10]) is over 5000 nM; in assay [2] (setting [11]) it was under 500 nM; in assay [3] (class symbols A/B/C), under 500 nM; in assay [4] (setting [12]), 500 to 5000 nM.

As for `CCS(=O)(=O)Nc1ccc(Oc2ccc(F)cc2F)c(-c2cn(C)c(=O)c3ccncc23)c1` [Example 127, N-[4-(2,4-difluorophenoxy)-3-(2-methyl-1-oxo-2,6-naphthyridin-4-yl)phenyl]ethanesulfonamide], the IC50 was over 5000 nM in assay [1] (setting [10]), under 500 nM in assay [2] (setting [11]), under 500 nM in assay [3] (class symbols A/B/C) and under 500 nM in assay [4] (setting [12]).

As to `CCn1cc(-c2cc(CS(C)(=O)=O)ccc2Oc2ccc(F)cc2F)cc(C)c1=O` [Example 429, 5-[2-(2,4-difluorophenoxy)-5-(methylsulfonylmethyl)phenyl]-1-ethyl-3-methylpyridin-2-one], the IC50 is over 5000 nM in assay [1] (setting [7]), under 500 nM in assay [2] (setting [8]), under 500 nM in assay [3] (setting [6]) and under 500 nM in assay [4] (setting [9]).

Consider `Cn1cc(-c2nc(S(C)(=O)=O)ccc2OCC2CC2)c2ccoc2c1=O` [Example 259, 4-[3-(cyclopropylmethoxy)-6-methylsulfonylpyridin-2-yl]-6-methylfuro[2,3-c]pyridin-7-one], for which the IC50 is over 5000 nM in assay [1] (setting [5]); under 500 nM in assay [2] (HL-60, Cell-MTS proliferation); under 500 nM in assay [3] (setting [6]); 500 to 5000 nM in assay [4] (Raji, Cell-MTS proliferation).

For `CCS(=O)(=O)c1ccc(Nc2ccc(F)cc2F)c(-c2cc(C)c(=O)n(C)c2)c1` [Example 396, 5-[2-(2,4-difluoroanilino)-5-ethylsulfonylphenyl]-1,3-dimethylpyridin-2-one], the IC50 in assay [1] (setting [7]) was over 5000 nM; in assay [2] (setting [8]), under 500 nM; in assay [3] (setting [6]), under 500 nM; in assay [4] (setting [9]), under 500 nM.

Regarding `Cn1cc(-c2cc(S(C)(=O)=O)ccc2OC2CCOCC2)c2ccccc2c1=O` [Example 176, 2-methyl-4-[5-methylsulfonyl-2-(oxan-4-yloxy)phenyl]isoquinolin-1-one], the IC50 was over 5000 nM in assay [1] (setting [5]); under 500 nM in assay [2] (HL-60, Cell-MTS proliferation); under 500 nM in assay [3] (setting [6]); under 500 nM in assay [4] (Raji, Cell-MTS proliferation).
